Read-outs that look alike come from different tables or passages of the source.
Columns and labels:
dandelions [1] = assay: Example 3 FeSO4, EDTA, EDDS and MH combinations on potted dandelions; type: in vivo, Taraxacum officinale; settings: for Plant Death (%) Dandelion: 3 days after second spray; for Plant Damage (0 to 9) Dandelion: 3 days after second spray (re-sprayed after 9 days)
Description: (§1) The following non-limiting examples serve to further describe the invention. Unless otherwise specified, all of the iron solutions were made using the same molar concentration of iron ion as chelating agent. All of the outside tests were done on areas of mixed grass and dandelions that were at least 2 months old. For the greenhouse tests, dandelions were grown in a commercial greenhouse mix, using supplemental lighting and heating. Each plant was grown in a 2¼ inch pot to a minimum diameter of 20 cm. All of the solutions were sprayed onto the plants at a rate of 100 ml/m^2. The ferrous sulfate formulations that were used in examples 1, 2, 8 and 9 contained 1% iron (180 mM), 18 mM EDTA, 1% citric acid and 0.5% urea. In all of the examples, the amount of iron is identified in brackets as the percent iron on a weight basis.
(§2) All plant damage was assessed using a qualitative rating scale from 0 to 9.
(§3) This test investigated the effect of 10% chelation and pH on potted grass and dandelions. All of the solutions contained 10% ferrous sulfate heptahydrate, resulting in a Fe^+2 concentration of 2% (358.1 mM). EDTA and EDDS were added at 1/10th of the iron molar concentration (35.8 mM). MH was added 1%. The dandelions and turf grasses were sow in separate pots 3 weeks prior to the start of the test.
(§4) The plants were re-sprayed after 9 days.

grass [2] = assay: Example 9 lawn restoration, grass coverage and damage; type: in vivo; settings: after 18 days, sprayed twice
Description: (§5) Na4EDTA was added to the ferrous sulfate solution at 1.5% (36 mM). The molar level of EDTA is 1/10 that of the iron ions. […] The urea is added as a nitrogen fertilizer source to encourage the growth of the grasses.

dandelions [3] = assay: Example 7 potassium nonanoate with FeHEDTA, greenhouse dandelions; type: in vivo, Taraxacum officinale; settings: for Dead Plants (#/10): 8 + 5 days after spraying
Description: as §1, §2
This test compared the damaged caused by combinations of fatty acid and FeHEDTA. FeHEDTA was used at a concentration to 35.8 mM. The treatment with 0.1% Fe contained twice the molar amount of chelating agent as iron. The treatment with 0.2% iron contained the same molar amount of chelating agent as iron Potassium nonanoate (KC9) was used at 0.84%. The plants were re-sprayed 8 days after the first spray.

grass [4] = assay: Example 1 field test of iron chelates, grass damage; type: in vivo; settings: field, sprayed once at 100 ml/m^2, 5 days after spraying
Description: as §1, §2
(§6) All of the iron chelates were sprayed once at 0.2% Fe^+3 (35.8 mM), at a volume of 100 ml/m^2 onto 0.5 m^2 areas of mixed grass and dandelions. The spraying of the test was followed by 2 days of rain-free weather. Observations were made 5 days after spraying.

grass [5] = assay: Example 2 field test of FeEDDS and FeHEDTA at pH 3 and 7, grass; type: in vivo; settings: solution pH 2.6-3.0; field, 0.1 L/m^2, 4 days after spraying
Description: as §1, §2
(§7) The FeEDDS and FeHEDTA solutions contained 0.2% Fe^+3 (35.8 mM). The ferrous sulfate contained 1% Fe^+2 (179.1 mM). The solutions were sprayed at a rate of 0.1 L/m^2 onto 2 plots of 0.5 m^2 of mixed grass and dandelions. Observations were made 4 days after spraying.

dock (Rumex crispus) = assay: Example 9 lawn restoration, dock coverage; type: in vivo; settings: after 18 days, sprayed twice
Description: as §5

[6] = system: daisy plants (Bellis perennis BELPE); assay: Example 8 field daisy test of iron solutions; type: in vivo; settings: 0.5 L/m^2, 6 days after spraying
Description: as §1

dandelions [7] = assay: Example 1 field test of iron chelates, dandelion damage; type: in vivo, Taraxacum officinale; settings: sprayed once at 100 ml/m^2, 5 days after spraying
Description: as §1, §2, §6

turf grasses = settings: for Plant Death (%) Grass: 3 days after second spray; for Plant Damage (0 to 9) Grass: 3 days after second spray (re-sprayed after 9 days)
Description: as §1, §2, §3, §4

dandelions [8] = assay: Example 2 field test of FeEDDS and FeHEDTA at pH 3 and 7, dandelion; type: in vivo, Taraxacum officinale; settings: solution pH 2.6-3.0, 0.1 L/m^2, 4 days after spraying
Description: as §1, §2, §7

[9] = system: dandelions (Taraxacum officinale); assay: Example 9 lawn restoration, dandelion coverage; type: in vivo
Description: as §5

With O=S(=O)([O-])[O-].[Fe+2] [FeSO4, ferrous sulfate] the “Plant Death (%) Dandelion” value (dandelions [1]; pH 3) was 76%, the “Plant Damage (0 to 9) Dandelion” value (dandelions [1]; pH 3) was 8.2 0 to 9 and the “Plant Death (%) Dandelion” value (dandelions [1]; pH 6) was 17%. For the same compound, the “Plant Damage (0 to 9) Dandelion” value (dandelions [1]; pH 6) was 6.0 0 to 9, the “Grass Damage (0 to 9)” value (grass [2]) was 1 and the “Plot Area Covered (%) By: Grass” value (grass [2]) was 20%. The “Plant Damage (0 to 9)” value (dandelions [3]; 8 + 5 days after spraying (re-sprayed after 8 days), listed as FeSO4 (0.2% Fe^+2)) was 0.2 0 to 9, the “Plant Damage (0 to 9)” value (dandelions [3]; 8 + 5 days after spraying (re-sprayed after 8 days), listed as FeSO4 (1% Fe^+2)) was 7.2 0 to 9 and the “Plant Damage (0 to 9)” value (dandelions [3]; 8 + 5 days after spraying (re-sprayed after 8 days), listed as FeSO4 (2% Fe^+2)) was 8.4 0 to 9. For the same compound, the “Dead Plants (#/10)” value (dandelions [3]; listed as FeSO4 (0.2% Fe^+2)) was 0 #/10, the “Dead Plants (#/10)” value (dandelions [3]; listed as FeSO4 (1% Fe^+2)) was 5 #/10 and the “Dead Plants (#/10)” value (dandelions [3]; listed as FeSO4 (2% Fe^+2)) was 8 #/10. The “Plant Damage (0 to 9)” value (dandelions [3]; 7 days after spraying, listed as FeSO4 (0.2% Fe^+2)) was 0.8 0 to 9, the “Plant Damage (0 to 9)” value (dandelions [3]; 7 days after spraying, listed as FeSO4 (1% Fe^+2)) was 4.4 0 to 9 and the “Plant Damage (0 to 9)” value (dandelions [3]; 7 days after spraying, listed as FeSO4 (2% Fe^+2)) was 6.2 0 to 9. The “Grass Damage (0 to 9)” value (grass [4]) was 7, the “Grass Damage (0 to 9)” value (grass [5]) was 7.0 0 to 9 and the “Plot Area Covered (%) By: Dock” value (dock (Rumex crispus)) was 14%. For the same compound, the “Daisy Mortality (%)” value [6] was 6%, the “Dandelion Damage (0 to 9)” value (dandelions [7]) was 6.3 0 to 9 and the “Plant Death (%) Grass” value (turf grasses; pH 3) was 0%. The “Plant Damage (0 to 9) Grass” value (turf grasses; pH 3) was 4, the “Plant Death (%) Grass” value (turf grasses; pH 6) was 0% and the “Plant Damage (0 to 9) Grass” value (turf grasses; pH 6) was 0. The “Dandelion Damage (0 to 9)” value (dandelions [8]) was 7.0 0 to 9, the “effect on dandelion (and dock) in the plots, in words” value ([9]; Example 9, text) was “did not appear to reduce the area covered by dandelions” and the “Plot Area Covered (%) By: Dandelion” value ([9]; after 18 days, sprayed twice) was 65%.
